Assay [1] concerns retinal ganglion cells. Description: Cell viability studies: labeled retinal ganglion cells surviving after 24 hrs in mixed retinal cultures. The following applies: for reduction in the number of dead cells / protection against cell death triggered by BzATP: 50 uM BzATP + 100 nM A3 agonist. In kind it is cell-based, rat. As to the method: (§1) Pups PD2-6 from untimed pregnant Long-Evan rats (Jackson Laboratory Inc., Bar Harbor, Me.) were back-labeled by the injection of FluoroGold derivative aminostilbamidine (Molecular Probes, Eugene, Oreg.) based upon standard protocols. […] Using a Hamilton syringe affixed to a micromanipulator, a needle was inserted 0.8 mm lateral from the midline and 0.8 mm anterior to Bregma's line and a total of 2.5 μl dye was delivered to each side at a depth of 2 mm and 1 mm. The needle was retracted after a delay of 2 min to allow dye absorption and the wound was closed with 2-3 sutures. Preliminary examination of labeled retinal whole mounts confirmed an even distribution of dye, showing all cells were stained 2 days after injection, with no further increase in the number of labeled cells in subsequent days. Consequently, retinas containing labeled ganglion cells were dissociated 2-6 days after injection. Animals were sacrificed by i.p. injection of 50/5 mg/kg Ketamine/Xylazine followed by an overdose, in accordance with University of Pennsylvania IACUC approved protocols and the ARVO Statement on the Use of Animals in Ophthalmic and Vision Research.
The retina was dissected from each globe, washed in sterile Hanks' balanced salt solution (HBSS, Gibco, Inc Invitrogen Corp., Carlsbad, Calif.), then incubated in HBSS containing activated papain (4.5 U/ml; Worthington Biochemical Corp., Lakewood, N.J.) for 12 minutes at 37° C. Retinas were washed twice and triturated 50 times with a 1-ml glass pipette to dissociate cells. Cells were plated onto twelve 12-mm coverslips previously coated with poly-L-lysine. […] Retinal cells were incubated at 37° C. with 5% CO2.
Drugs were added to the culture medium at the time when cells were plated onto coverslips. […] All counts were performed in a masked fashion. In experiments involving antagonist pretreatment, drugs were added to the medium at the time of plating. After preincubation at 37° C., stock concentrations of BzATP were added directly to the cells to give the final concentration shown.
Data are presented as mean±standard error of the mean. Significance was evaluated using a Student's unpaired t test, with a p value <0.05 signifying significance. For cell viability studies, the number of experiments, n, represents the number of coverslips from which 80 fields were measured and averaged. All values were normalized to the mean control level for that day's matched set of experiments to control for variation in plating efficiency.

Assay [2] relates to retinal ganglion cells. Description: Intracellular Ca2+ measurements (fura-2): BzATP-triggered Ca2+ elevation in ganglion cells from mixed retinal cultures. The assay is classed as cell-based, rat. As to the method: as §1
The retina was dissected from each globe, washed in sterile Hanks' balanced salt solution (HBSS, Gibco, Inc Invitrogen Corp., Carlsbad, Calif.), then incubated in HBSS containing activated papain (4.5 U/ml; Worthington Biochemical Corp., Lakewood, N.J.) for 12 minutes at 37° C. Retinas were washed twice and triturated 50 times with a 1-ml glass pipette to dissociate cells. Cells were plated onto twelve 12-mm coverslips previously coated with poly-L-lysine. The basic growth medium contained Neurobasal medium with 2 mM glutamine, 100 μg/ml gentamicin, 0.025 ml/ml B27 supplement (all Invitrogen Inc., Carlsbad, Calif.), 0.7% methylcellulose (Stemcell Technologies Inc., Vancouver, BC, Canada) and 2.5% rat serum (Cocalico Biologicals Inc., Reamstown, Pa.). Retinal cells were incubated at 37° C. with 5% CO2.
(§2) Unlabeled RGCs grown on coverslips for 24 hrs were loaded with 10 μM fura-2 and 2% pluoronic (Molecular Probes, Eugene, Oreg.) for 60-90 min at room temperature, rinsed and maintained in fura-2-free solution for 30 min before data acquisition began. The coverslips were mounted on a Nikon Diaphot inverted microscope and visualized with a 40× objective. […] To obtain Ca^2+ measurements, the field was alternatively excited at 340 nm and 380 nm with a scanning monocrometer and the fluorescence emitted >520 nm from a region of interest surrounding individual retinal ganglion cells was imaged with a CCD camera and analyzed (all Photon Technologies International, Inc., Lawrenceville, N.J.). Cells were perfused with a control solution at the start of Ca^2+imaging experiments containing (in mM) 105 NaCl, 4.5 KCl, 2.8 NaHepes, 7.2 Hepes acid, 1.3 CaCl2, 0.5 MgCl2, 5 glucose, 75 mannitol, pH 7.4. Drugs were dissolved into the control solution. Calibration was performed separately on each cell after the experiment by perfusing cells in the presence of 5 μM ionomycin and control solution (with 1.3 mM Ca2+) followed by ionomycin in the base solution without Ca^2+ and with the addition of 5 mM EGTA (pH 7.4). The 340/380 ratio was converted to Ca^2+ concentration as previously described. All experiments were performed at room temperature.
In Ca^2+ experiments, n refers to the number of responses tested. The BzATP concentration-response curve was fit with a standard exponential function y=y0+ae(−bx) using Sigmaplot software (SPSS Inc, Chicago, Ill.). The % block of Ca2+ elevations is defined as 100*(a−b)/a, where a is the response under control conditions and b is the response under experimental conditions. All materials are from Sigma Chemical Corp, (St. Louis, Mo.) unless otherwise indicated.

Assay [3] has as its system isolated retinal ganglion cells. The assay is described as follows: Intracellular Ca2+ measurements: BzATP-triggered Ca2+ elevation in isolated (immunopanned) retinal ganglion cells. In kind it is cell-based, rat. The following applies: 50 μM BzATP 15 sec, purified ganglion cells. As to the method:
as §2
(§3) Purification of ganglion cells using the panning procedure is based upon published methods (Hartwick et al., 2004). Neonatal rat retinas (PD 7-12) were dissected and incubated at 37° C. for 30 min in HBSS containing 15 U/mL papain, 0.2 mg/mL DLcysteine and 0.004% DNAse I (Worthington/Cooper, Lakewood, N.J.). The tissue was triturated in HBSS with 1.5 mg/ml ovomucoid (Worthington/Cooper, Lakewood, N.J.), 1.5 mg/ml BSA and 0.004% DNase I, centrifuged at 200 g for 11 minutes at room temperature, and cells were rewashed with 10 mg/ml ovomucoid-BSA solution. After centrifugation, cells were resuspended with PBS containing 0.2 mg/ml BSA and 5 μg/ml insulin and filtered through a Nitex mesh (Small Parts Inc, Miami Lakes, Fla.). […]

The subject of the next assay is isolated ganglion cells. The assay is described as follows: Glutamate release from isolated ganglion cells (GDH/NADH fluorescence). In kind it is cell-based, rat. On the procedure:
as §3
The measurement of glutamate was analogous to that used previously by the Haydon laboratory. […] NADH fluorescence is excited using a xenon arc lamp (100 watts) with a D360/10x exciter filter (Chroma Technology Corp., Brattleboro, Vt.), 510DRLP dichroic mirror (Omega Optical, Brattleboro, Vt.), and 515EFLP emission filter (Omega Optical). Images collected before, during and after the BzATP stimulus indicate the level of fluorescence. The percent increase in fluorescence, figured by dividing the change in fluorescence (ΔF) by the fluorescence level before stimulation (F0), represents the level of glutamate release. […]

In another assay the target is T1, human A2B receptors (Homo sapiens, UniProt P29275).
T1 sequence (P29275 1-332): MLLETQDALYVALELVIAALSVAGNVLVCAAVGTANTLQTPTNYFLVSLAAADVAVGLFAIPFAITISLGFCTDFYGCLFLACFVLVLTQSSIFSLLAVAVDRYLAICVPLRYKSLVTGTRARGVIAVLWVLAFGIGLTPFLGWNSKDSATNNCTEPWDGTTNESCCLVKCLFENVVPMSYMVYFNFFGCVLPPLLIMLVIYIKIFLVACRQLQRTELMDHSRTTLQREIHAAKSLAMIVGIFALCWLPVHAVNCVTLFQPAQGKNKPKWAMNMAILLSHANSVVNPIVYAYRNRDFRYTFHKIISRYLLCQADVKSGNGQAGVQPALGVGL
The note with it: cited from earlier work.

The mark [4] stands for this setting: 50 uM BzATP + 100 nM A3 agonist (30 min before and during), 24 hrs.

Molecules are shown by their SMILES. Several values for one entry are separate records, joined by “and”; a condition that tells them apart may be missing. Equal entries are not always repeated. Where only a bound is given, the exact number is not on record here.

With `N[C@@H](CCCP(=O)(O)O)C(=O)O` [APV, D-amino-phosphonovalerate], the “ganglion cell survival levels” value in the assay on retinal ganglion cells [1] (50 μM BzATP + APV, 24 hrs) is recorded as 77.8±5.9%. For the same molecule, the “mean reduction of Ca2+ elevation triggered by BzATP” value in the assay with retinal ganglion cells [2] (APV (100 μM in FIG. 2C, 300 μM in summary), 50 μM BzATP 15 sec) was 39.7±12.6%. For the same molecule, the “block of Ca2+ response to BzATP” value in assay [3] (100 μM APV) is reported as 36.1±7.5%.

Consider `Nc1ncnc2c1ncn2[C@@H]1O[C@H](COP(=O)(O)OP(=O)(O)OP(=O)(O)O)[C@@H](OC(=O)c2ccc(C(=O)c3ccccc3)cc2)[C@H]1O` [BzATP], for which, in the assay on retinal ganglion cells [1] (50 μM BzATP alone, 24 hrs), the “ganglion cell survival, % of control” value was 62.9 % of control and 68.9±2.3 % of control and 56.8 % of control and 79.0±2.9 % of control. Also, in the assay on isolated ganglion cells (BzATP alone, 17 applications from 7 coverslips), the “increase in absorbance at 360 nm (glutamate release)” value was 17.1±4.0%. In addition, the “mean levels of Ca2+” value came to 647.0 ± 80.7 nM with retinal ganglion cells [2] (first exposure to 50 μM BzATP alone, 15 sec) and 600.3 ± 227.6 nM in the assay with retinal ganglion cells [2] (third exposure to BzATP after removal of CI-IB-MECA).

A word on the Kd: it is a measure of binding affinity in units of concentration. Take `CNC(=O)C1OC(n2cnc3c(NCc4cccc(I)c4)nc(Cl)nc32)C(O)C1O` (stereo not shown) [CI-IB-MECA, 2-chloro-N6-(3-iodobenzyl)-adenosine-5-N-methyluronamide]: the “ganglion cell survival, % of control” value in the assay on retinal ganglion cells [1] (setting [4]) is 80.1±4.7 % of control. For the same molecule, the “reduction in the number of dead cells / protection against cell death triggered by BzATP” value with retinal ganglion cells [1] (24 hrs) was 54%. For the same molecule, the Kd at human A2B receptors was greater than 100 µM. In addition, the “block of Ca2+ increase, normalized to peak of first response” value in the assay on retinal ganglion cells [2] (100 nM CI-IB-MECA, 50 μM BzATP 15 sec) came to 81%. In addition, the “mean levels of Ca2+” value with retinal ganglion cells [2] (second BzATP application in presence of 100 nM CI-IB-MECA) stood at 110.7 ± 32.8 nM.

For the molecule `CNC(=O)[C@H]1O[C@@H](n2cnc3c(NCc4cccc(I)c4)ncnc32)[C@H](O)[C@@H]1O` [IB-MECA], the “ganglion cell survival, % of control” value in the assay with retinal ganglion cells [1] (setting [4]) is reported as 98.5±2.7 % of control. In the assay on retinal ganglion cells [1] (24 hrs), the “reduction in the number of dead cells / protection against cell death triggered by BzATP” value turned out to be 95%.

For `C[C@]12N[C@H](Cc3ccccc31)c1ccccc12` [MK-801], in the assay with retinal ganglion cells [1] (50 μM BzATP + 10 μM MK-801, 24 hrs), the “ganglion cell survival, % of control” value is reported as 102.7±3.2 % of control. Also, the “decrease of Ca2+ elevation triggered by BzATP” value in the assay on retinal ganglion cells [2] (10 μM MK-801, 50 μM BzATP 15 sec, peak vs mean response before and after) is on record as 55.1±6.5%; in assay [3] (10 μM MK-801) it was 50.1±5.5%.

As to `CN[C@H](CC(=O)O)C(=O)O` [NMDA, N-methyl-D-aspartate], in the assay on retinal ganglion cells [1] (100 uM NMDA alone, 24 hrs), the “ganglion cell survival, % of control” value was 69.9±3.2 % of control.

Turning to `Nc1ncnc2c1ncn2[C@@H]1O[C@H](CO)[C@@H](O)[C@H]1O` [adenosine], in the assay on retinal ganglion cells [1] (50 μM BzATP + 300 uM adenosine (30 min before), 24 hours), the ganglion cell survival came to 91.2±3.5%. Moreover, the “ganglion cell survival, % of control” value in the assay with retinal ganglion cells [1] (50 μM BzATP + 1 mM adenosine, 24 hours) is reported as 92.4±2.5 % of control. In addition, the “ganglion cell counts, % of control” value in the assay with retinal ganglion cells [1] (100 uM NMDA + 300 uM adenosine, 24 hrs) is 102.1±3.9 % of control. The “block of Ca2+ increase compared to BzATP alone” value with retinal ganglion cells [2] (300 uM adenosine, two minute 50 uM BzATP) was 85%. Moreover, the “effect on Ca2+ response to brief 50 uM BzATP” value in the assay on retinal ganglion cells [2] (adenosine added with alternate BzATP applications, reversible, repeatable) is reported as “greatly reduced the response”. Moreover, the “peak Ca2+ levels” value in the assay with retinal ganglion cells [2] (two minute application of 50 uM BzATP in presence of 300 uM adenosine (2 min pretreatment), n=7) was 215 ± 62 nM.

For the molecule `CCOc1ccc(Nc2ccc(/C(=C3C=C/C(=[N+](/CC)Cc4cccc(S(=O)(=O)[O-])c4)C=C/3C)c3ccc(N(CC)Cc4cccc(S(=O)(=O)[O-])c4)cc3C)cc2)cc1.[Na+]` [brilliant blue G], in the assay on isolated ganglion cells (in presence of brilliant blue G, n=3), the “net absorbance change (glutamate release) in response to BzATP” value was −0.9±0.9%.

As usually defined, the inhibition is how much of the control response was suppressed. For the molecule `CC12CC3CC(C)(C1)CC(N)(C3)C2` [memantine], the “effect on ganglion cell survival” value in the assay on retinal ganglion cells [1] (50 μM BzATP + 100 μM memantine, 24 hrs) is “neuroprotective”. Further, the “reduction of Ca2+ elevation triggered by BzATP” value with retinal ganglion cells [2] (30 μM memantine, in 4/7 experiments, effect variable, 50 μM BzATP) is listed as 65.5±6.7%. The inhibition at 30 µM in assay [3] (Rattus norvegicus, 30 μM memantine, read-out: inhibition of Ca2+ response to BzATP) came to 18.4 ± 4.2%.
